# Test results reported in US20160290995A1, “METHODS OF SELECTING AKT AGONISTS OR ANTAGONISTS” (OREGON HEALTH & SCIENCE UNIVERSITY, priority 2015, published 2016).
# pIC50: −log10 of the molar value. Where two headings read alike, the source gives them in different places.
# Legend:
# Akt [1] = test: FOXO1-clover reporter live-cell imaging (relative nuclear intensity) in C3H10T1/2 fibroblasts; format: cell-based, mouse; settings: for effect of inhibitor on IGF-I-mediated reporter localization: 90 min, graded inhibitor concentrations; for pIC50: Mus musculus, C3H 10T1/2; for mean rate of nuclear import of FOXO1-clover: after R3-IGF-I 250 pM; for change of nuclear levels of the reporter on growth factor addition (result in words): different concentrations; for change of nuclear levels of the reporter on growth factor addition (result in words) / time to half-maximal translocation/accumulation of reporter in the cytoplasm after onset of incubation / time to maximal translocation values: cells pre-incubated in SFM; for time to half-maximal translocation/accumulation of reporter in the cytoplasm after onset of incubation / time to maximal translocation values: different growth factor concentrations
# Protocol: (§1) Cells were imaged every 2-min for 60 min. At the end of the incubation period whole cell lysates were collected.
# 10T1/2 cells and C2 myoblasts were incubated in serum-free medium for 90 min. R3-IGF-I was added in supplemented FluoroBrite [0 to 500 pM], and cells were imaged every 2-min for 60 min. […]
# (§2) Live cell imaging was performed using an EVOS FL Auto microscope with a stage top incubator that was maintained at 37° C. and 95% humidified air with 5% CO2. Images were collected at 100× magnification at different intervals, using a 10× Fluorite objective (numerical aperture: 0.3), and a GFP light cube (excitation peak, 472/22 nm; emission peak, 510/42 nm). Images were analyzed with the NIH ImageJ plug-in Fiji (NIH, Bethesda, Md.), after using the Polynomial Fit plug-in to subtract background fluorescence, the Stack Reg (rigid registration) plug-in to register images, and the Gaussian Blur plug-in (at 2-pixels) to average fluorescence across pixels. Individual cells were manually tracked using the mTrackJ plug-in (Meijering E et al, Methods Enzymol 504, 183-200 (2012); incorporated by reference herein) by selecting a single point in the nucleus. Cells that died, divided, or migrated out of frame were excluded from analysis. In experiments performed in 6-well dishes, two locations on opposite sides of the well were imaged, while for studies using 24-well plates, one central location was imaged. In each location, at least 25 cells were tracked.
# Akt [2] = test: FoxO1-clover reporter live-cell imaging in HeLa cells; format: cell-based; settings: IGF-I 500 pM, insulin 1400 pM, EGF 4.2 nM, PDGF-BB 4.1 nM, PDGF-AA 3.5 nM; 90 min
# Protocol: HeLa cells (ATCC #CCL2) were incubated in DMEM supplemented with 10% FBS. Cells were transduced at 50% of confluent density with concentrated FoxO1-clover virus in the presence of polybrene (6 μg/ml), as described (Gross S M and Rotwein P, Skelet Muscle 3, doi10.1186/2044-5040-3-10 (2013); incorporated by reference herein), and sorted by fluorescence intensity with a Becton-Dickinson Influx cell sorter. Reporter expression was stable for at least 10 passages in each sorted cell population. C3H10T1/2 mouse embryonic fibroblasts (ATC #CCL226) stably expressing FoxO1-clover (Gross and Rotwein, 2015), were maintained under selection with puromycin (2 μg/ml).
# as §2, with “tracked. The relative nuclear intensity of the FoxO1-clover reporter protein was calculated in each cell by normalizing the values measured at time 0 to 100%. This corresponded to incubation in serum-free medium (SFM). In graphs in which single cell responses were plotted with C3H10T1/2 cells, we applied a time-weighted smoothing filter to each data point. This consisted of averaging contributions from the two prior and two succeeding times (adding 50% of the prior or succeeding time point, and 25% of the next succeeding or earlier time point to 100% of the value of the time point in question, and then dividing by 2.5).” for “tracked.”
# Short-term responses to individual growth factors: C3H10T1/2 cells were incubated in serum-free Fluorobrite medium plus 2 mM L-glutamine and 0.1% bovine serum albumin for 90 min. Different concentrations of growth factors were added and images were collected every 2 min for 90 min. Growth factors included insulin [0 to 1400 pM], EGF [0 to 4.2 nM], PDGF-AA [0 to 1400 pM], or PDGF-BB [0 to 104 pM]. HeLa cells were incubated in serum-free Fluorobrite medium for 120 min and then incubated with insulin [1400 pM], EGF [4.2 nM], PDGF-AA [3.5 nM], PDGF-BB [4.1 nM], or R3-486 IGF-I [500 pM], with images collected every 2 min.
# Akt phosphorylation = test: Immunoblotting of Akt and PRAS40 phosphorylation in 10T1/2 whole cell lysates; format: cell-based, mouse; settings: for time course of Akt and PRAS40 phosphorylation (result in words): insulin 1400 pM, EGF 4.2 nM, PDGF-AA 1400 pM, PDGF-BB 104 pM, up to 90 min
# Protocol: as §1
# Whole cell protein lysates were prepared as described (Mukherjee A and Rotwein P, Mol Endorcrinol 22, 1238-1250 (2008); incorporated by reference herein). Protein aliquots (15 μg/lane) were resolved by SDS-PAGE (12% separating gel), followed by transfer to Immobilon-FL membranes, and blocking with 50% AquaBlock solution. Membranes were incubated sequentially with primary and secondary antibodies, as described (Mukherjee and Rotwein, 2008 supra). Primary antibodies were incubated for 12-16 hr at a 1:1000 dilution, except for α-tubulin (1:10,000), and secondary antibodies for 90 min at 1:5000. Images were captured using the LiCoR Odyssey and version 3.0 analysis software (Lincoln, Nebr.).
# C3H10T1/2 cells stably expressing FoxO1-clover were incubated in SFM with Fluorobrite imaging media for 90 min followed by addition of insulin [1400 pM], EGF [4.2 nM], PDGF-AA [1400 pM], or PDGF BB [104 pM]. Whole protein lysates were collected after 0, 5, 15, 30, 60, and 90 min of growth factor exposure by washing cells twice with cold PBS and addition of RIPA buffer containing protease and phosphatase inhibitors (Mukherjee A and Rotwein P, Mol Endocrinol 22, 1238-1250 (2008); incorporated by reference herein). Protein aliquots (12.5 μg/lane) were resolved by SDS PAGE (10% separating gels), and transferred onto Immobilon-FL membranes. Membranes were incubated in 50% AquaBlock for 60 min, followed by addition of primary antibodies at 1:1000 dilution for 16 hr, and secondary antibodies for 90 min at 1:5000. Images were collected using the LiCoR Odyssey and analysis software version 3.0 (Lincoln, Nebr.).
# [3] = two highest concentrations of PDGF-AA
# [4] = higher concentrations of PDGF-BB
# [5] = lower growth factor concentrations
molecule,measurement,setting,value
"C[C@]1(O)C[C@@H](c2nc(-c3ccc4ccc(-c5ccccc5)nc4c3)c3c(N)nccn32)C1 [Linsitinib, reference compound]",effect of inhibitor on IGF-I-mediated reporter localization,Akt [1]; IGF-I 500 pM,dose-dependent decline in maximal IGF-I-mediated cytoplasmic localization of the FoxO1-clover reporter molecule
"Oc1cccc(-c2nc(N3CCOCC3)c3oc4ncccc4c3n2)c1 [PI103, reference compound]",fraction of reporter in the nucleus,"Akt [1]; 60 min after PI103 500 nM, following 60 min IGF-I 250 pM, scaled 0% = IGF-I, 100% = leptomycin",~56%
same,effect of inhibitor on IGF-I-mediated reporter localization,Akt [1]; IGF-I 500 pM,dose-dependent decline in maximal IGF-I-mediated cytoplasmic localization of the FoxO1-clover reporter molecule
same,enhancement of mean rate of nuclear import by inhibition of PI3-kinase,Akt [1]; Lepto plus PI103 vs Lepto alone,up to 4 fold
same,pIC50,"Akt [1]; IGF-I 500 pM, read-out: IC50 for IGF-I-mediated signaling",6.70 to 7.30
same,pIC50,"Akt [1]; PDGF-BB 830 pM, read-out: IC50 for PDGF-BB-mediated signaling",7.30 to 7.70
same,increase in nuclear localization of the reporter compared with serum-free medium alone,Akt [1]; PI103 500 nM added to cells in SFM,~10%
same,time after addition of PI103 at which N/C=1,Akt [1]; PI103 500 nM after IGF-I 250 pM,~15 min
same,mean rate of nuclear import of FOXO1-clover,Akt [1]; leptomycin B 100 nM plus PI103 500 nM,> 12 % per min
"CCC(=C/[C@H](C)C/C=C/C(C)=C/[C@@H](C)C(=O)[C@@H](C)[C@H](O)[C@@H](C)C/C(C)=C/C(=O)O)/C=C/[C@@H]1OC(=O)C=C[C@@H]1C [leptomycin B, reference compound]",half-maximal time of nuclear appearance of reporter after leptomycin B,Akt [1]; leptomycin B 100 nM after 60 min IGF-I 25 pM,~5 min
same,half-maximal time of nuclear appearance of reporter after leptomycin B,Akt [1]; leptomycin B 100 nM after 60 min IGF-I 250 pM,~25 min
same,change of nuclear intensity of the reporter after subsequent leptomycin,Akt [1]; leptomycin B 100 nM after PI103 in SFM,nearly a doubling
same,mean rate of nuclear import of FOXO1-clover,"Akt [1]; leptomycin B 100 nM alone, single exponential fit of individual cells",~3 % per min
"EGF: mouse EGF (Gibco-Life Technologies), peptide growth factor (NSYPGCPSSYDGYCLNGGVCMHIESLDSYTCNCVIGYSGDRCQTRDLRWWELR; Epidermal growth factor; UniProt P01132 977-1029, looked up)",signaling response in HeLa FoxO1-clover cells (result in words),Akt [2],transient responses
same,change of nuclear levels of the reporter on growth factor addition (result in words),Akt [1]; population level,"rapid, dose-dependent, and transient decreases in nuclear levels of the FoxO1-clover reporter protein"
same,time by which signal intensity was waning,"Akt [1]; population level, after EGF treatment",45 min
same,time to half-maximal translocation/accumulation of reporter in the cytoplasm after onset of incubation,Akt [1]; population level,6 to 9 min
same,time to maximal translocation values,Akt [1]; population level,~13 min
same,response to a second treatment with the same growth factor,"Akt [1]; sequential exposures, IGF-I 50 or 500 pM with 90-min washout, EGF 4.2 nM after 60 min EGF",minimally promoted FoxO1-clover reporter translocation out of the nucleus
same,time course of Akt and PRAS40 phosphorylation (result in words),Akt phosphorylation,Similarly transient effects
PDGF-AA: recombinant human PDGF-AA (Thermo Scientific); binds almost exclusively to the PDGF-α receptor,signaling response in HeLa FoxO1-clover cells (result in words),Akt [2],ineffective
same,change of nuclear levels of the reporter on growth factor addition (result in words),Akt [1]; population level,"rapid, dose-dependent decreases in nuclear levels of FoxO1-clover"
same,decline of population response from peak values,Akt [1]; over the next 40 min after the peak,50-75%
same,time to half-maximal translocation/accumulation of reporter in the cytoplasm after onset of incubation,Akt [1]; population level,6 to 10 min
same,time to maximal translocation values,Akt [1]; population level,~14 min
same,fraction of cells demonstrating sustained effects,Akt [1]; [3],10-15%
same,fraction of cells showing no or minimal responses,Akt [1]; [3],25-30%
same,time course of Akt and PRAS40 phosphorylation (result in words),Akt phosphorylation,Similarly brief effects
PDGF-BB: recombinant human PDGF-BB (Invitrogen); binds PDGF-α and PDGF-β receptors,signaling response in HeLa FoxO1-clover cells (result in words),Akt [2],transient responses
same,duration of maintained cytoplasmic localization of the reporter,Akt [1]; [4],at least 90 min
same,time to half-maximal accumulation of FoxO1-clover in the cytoplasm,Akt [1]; [4],< 5 min
same,time to half-maximal accumulation of FoxO1-clover in the cytoplasm,Akt [1]; [5],8 to 9 min
same,time to maximal values,Akt [1]; [5],~14 min
same,fraction of cells showing large and sustained signaling responses,Akt [1]; peak concentrations of PDGF-BB,90-99%
same,subcellular localization of FOXO1-clover (result in words),"Akt [1]; serum-starved cells, 60 min, 10% FBS, PDGF-BB 206 pM, R3-IGF-I 1 nM, BMP-2 15 nM",rapid and sustained translocation of the reporter from the nucleus to the cytoplasm
same,Akt phosphorylation (pAkt T308 immunoblot),"Akt phosphorylation; 60 min, 10% FBS, PDGF-BB 206 pM, R3-IGF-I 1 nM, BMP-2 15 nM",stimulation of Akt phosphorylation
same,time course of Akt and PRAS40 phosphorylation (result in words),Akt phosphorylation,Similarly sustained signaling
